This test has as its target T1, wtKIT (Homo sapiens, UniProt P10721).
T1 construct: 1888289AM in the reaction mixtures
The test is described as follows: HTRF biochemical assay, wtKIT (phosphorylation of a peptide substrate). As to conditions: Table 4. The procedure, abridged:
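wtKIT (5.0 nM) phosphorylating 1 µM FAM-labelled peptide with 400 µM ATP and 10 mM MnCl2 in 100 mM HEPES pH 7.5, 1% DMSO, 3 h at 25 °C. EDTA quench; phosphopeptide detected with anti-phosphotyrosine antibody by HTRF. Enzyme titrated for 10-20% substrate conversion.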
In general terms: TR-FRET usually uses a lanthanide donor and a delayed reading to cut background.

T1 sequence (P10721 26-976): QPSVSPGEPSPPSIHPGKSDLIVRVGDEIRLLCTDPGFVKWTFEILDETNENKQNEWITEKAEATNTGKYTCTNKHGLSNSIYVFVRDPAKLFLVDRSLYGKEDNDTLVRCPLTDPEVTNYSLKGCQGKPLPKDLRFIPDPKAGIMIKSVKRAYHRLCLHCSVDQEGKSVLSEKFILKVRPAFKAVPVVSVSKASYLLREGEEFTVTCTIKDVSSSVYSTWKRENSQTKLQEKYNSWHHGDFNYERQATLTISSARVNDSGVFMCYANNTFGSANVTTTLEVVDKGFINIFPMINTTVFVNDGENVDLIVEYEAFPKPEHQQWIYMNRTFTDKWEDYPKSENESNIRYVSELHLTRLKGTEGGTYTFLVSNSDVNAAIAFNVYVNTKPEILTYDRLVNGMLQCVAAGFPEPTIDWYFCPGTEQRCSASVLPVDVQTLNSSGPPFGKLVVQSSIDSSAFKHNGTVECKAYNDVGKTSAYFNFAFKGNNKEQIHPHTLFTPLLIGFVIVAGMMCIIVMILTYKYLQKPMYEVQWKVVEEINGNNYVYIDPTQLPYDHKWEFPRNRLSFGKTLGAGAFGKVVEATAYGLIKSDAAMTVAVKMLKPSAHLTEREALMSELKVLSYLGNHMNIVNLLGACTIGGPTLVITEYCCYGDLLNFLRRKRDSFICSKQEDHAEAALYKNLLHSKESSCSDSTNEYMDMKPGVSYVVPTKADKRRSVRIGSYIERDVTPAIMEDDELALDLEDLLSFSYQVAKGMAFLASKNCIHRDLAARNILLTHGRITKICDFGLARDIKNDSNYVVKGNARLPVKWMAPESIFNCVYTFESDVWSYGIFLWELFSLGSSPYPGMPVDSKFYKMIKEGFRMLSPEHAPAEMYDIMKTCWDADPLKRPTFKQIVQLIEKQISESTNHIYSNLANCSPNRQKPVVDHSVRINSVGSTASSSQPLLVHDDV

The IC50 is the midpoint of a concentration-inhibition curve. In the case of `Cc1ccc(-c2noc([C@H]3C[C@@H]3F)n2)cc1NC(=O)c1cnc2cc(C/C=C/OCCO)ccn12` [Compound I-506, N-[5-[5-[(1R,2S)-2-fluorocyclopropyl]-1,2,4-oxadiazol-3-yl]-2-methyl-phenyl]-7-[(E)-3-(2-hydroxyethoxy)allyl]imidazo[1,2-a]pyridine-3-carboxamide], the half-inhibitory concentration (IC50) was no more than 0.05 µM.

Regarding `COCC(O)c1nc(-c2ccc(C)c(NC(=O)c3cnc4cc(C)ccn34)c2)no1` (stereo not drawn) [Compound I-608], the IC50 lay in the range of 0.05 to 0.5 µM.

`COc1ccn2c(C(=O)Nc3cc(-c4noc(-c5ccccn5)n4)ccc3C)cnc2c1` [Compound I-536, 7-methoxy-N-(2-methyl-5-(5-(pyridin-2-yl)-1,2,4-oxadiazol-3-yl)phenyl)imidazo[1,2-a]pyridine-3-carboxamide]: the IC50 is no more than 0.05 µM.

As to `Cc1ccc(-c2noc(CC(O)CN3CCOCC3)n2)cc1NC(=O)c1cnc2ccccn12` (stereo not drawn) [Compound I-543], the IC50 lay in the range of 0.05 to 0.5 µM.

With `Cc1ccn2c(C(=O)Nc3cc(-c4noc(CCC(C)(O)C(F)(F)F)n4)ccc3C)cnc2c1` (single isomer, unassigned) [Compound I-515], the IC50 is no more than 0.05 µM.

With `Cc1ccc(-c2noc(C[C@H](O)C(F)F)n2)cc1NC(=O)c1cnc2ccc(-c3cscn3)cn12` [Compound I-560, (S)—N-(5-(5-(3,3-difluoro-2-hydroxypropyl)-1,2,4-oxadiazol-3-yl)-2-methylphenyl)-6-(thiazol-4-yl)imidazo[1,2-a]pyridine-3-carboxamide], the IC50 is no more than 0.05 µM.

Turning to `COc1ccn2c(C(=O)Nc3cc(-c4noc(CC5COC5)n4)ccc3C)cnc2c1` [Compound I-633, 7-Methoxy-N-[2-methyl-5-[5-(oxetan-3-ylmethyl)-1,2,4-oxadiazol-3-yl]phenyl]imidazo[1,2-a]pyridine-3-carboxamide], the IC50 was no more than 0.05 µM.

On to `Cc1ccc(-c2noc(CC(O)C(F)F)n2)cc1NC(=O)c1cnc2cc(COCCO)ccn12` (single isomer, unassigned) [Compound I-511], for which the IC50 fell in the range of 0.05 to 0.5 µM.

With `Cc1ccc(-c2noc(C[C@H](O)C(F)F)n2)cc1NC(=O)c1cnc2ccc(-c3ccn(C)n3)cn12` [Compound I-562, (S)—N-(5-(5-(3,3-difluoro-2-hydroxypropyl)-1,2,4-oxadiazol-3-yl)-2-methylphenyl)-6-(1-methyl-1H-pyrazol-3-yl)imidazo[1,2-a]pyridine-3-carboxamide], the IC50 was no more than 0.05 µM.

In the case of `CCc1nc(-c2ccc(C)c(NC(=O)c3cnc4cc(OC)ccn34)c2)no1` [Compound I-737], the IC50 is no more than 0.05 µM.

Take `Cc1ccc(-c2noc(CC(O)C(F)F)n2)cc1NC(=O)c1cnc2ccccn12` (stereo not drawn) [Compound I-476]: the IC50 was no more than 0.05 µM.

Regarding `Cc1ccc(-c2noc(C[C@H](O)C(F)F)n2)cc1NC(=O)c1cnc2cc(OCCCCO)ccn12` [Compound I-568, (S)—N-(5-(5-(3,3-difluoro-2-hydroxypropyl)-1,2,4-oxadiazol-3-yl)-2-methylphenyl)-7-(4-hydroxybutoxy)imidazo[1,2-a]pyridine-3-carboxamide], the IC50 was no more than 0.05 µM.

As for `Cc1ccc(-c2noc([C@H]3CCN3)n2)cc1NC(=O)c1cnc2cc(-c3ccn(C)n3)ccn12` [Compound I-624, N-[5-[5-[(2R)-azetidin-2-yl]-1,2,4-oxadiazol-3-yl]-2-methyl-phenyl]-7-(1-methylpyrazol-3-yl)imidazo[1,2-a]pyridine-3-carboxamide], the IC50 is no more than 0.05 µM.

On to `CCc1nc(-c2ccc(C)c(NC(=O)c3cnc4cc(COC)ccn34)c2)no1` [Compound I-734], for which the IC50 is no more than 0.05 µM.

Turning to `Cc1ccc(-c2noc([C@@H]3CC4(CC4)CN3)n2)cc1NC(=O)c1cnc2cc(-c3cscn3)ccn12` [Compound I-635, N-[5-[5-[(6S)-5-azaspiro[2.4]heptan-6-yl]-1,2,4-oxadiazol-3-yl]-2-methyl-phenyl]-7-thiazol-4-yl-imidazo[1,2-a]pyridine-3-carboxamide], the IC50 was no more than 0.05 µM.

On to `Cc1ccn2c(C(=O)Nc3cc(-c4noc(CC5CCCCO5)n4)ccc3C)cnc2c1` (stereo not drawn) [Compound I-583, 7-methyl-N-(2-methyl-5-(5-((tetrahydro-2H-pyran-2-yl)methyl)-1,2,4-oxadiazol-3-yl)phenyl)imidazo[1,2-a]pyridine-3-carboxamide], for which the 50% inhibitory concentration (IC50) is no more than 0.05 µM.

For the molecule `COc1ccn2c(C(=O)Nc3cc(-c4noc(Cc5ccc(C)cc5)n4)ccc3C)cnc2c1` [Compound I-537, 7-methoxy-N-(2-methyl-5-(5-(4-methylbenzyl)-1,2,4-oxadiazol-3-yl)phenyl)imidazo[1,2-a]pyridine-3-carboxamide], the IC50 is no more than 0.05 µM.

With `Cc1ccc(-c2noc(-c3cccnc3)n2)cc1NC(=O)c1cnc2cc(COCCO)ccn12` [Compound I-708], the IC50 lay in the range of 0.05 to 0.5 µM.

Take `Cc1ccc(-c2ncon2)cc1NC(=O)c1cnn2ccccc12` [Compound I-640, N-(2-methyl-5-(1,2,4-oxadiazol-3-yl)phenyl)pyrazolo[1,5-a]pyridine-3-carboxamide]: the IC50 lay within 0.05 to 0.5 µM.

Regarding `Cc1ccc(-c2noc(N3CC(F)(F)C3)n2)cc1NC(=O)c1cnc2cc(OCCCN3CCCC3)ccn12` [Compound I-631, N-(5-(5-(3,3-difluoroazetidin-1-yl)-1,2,4-oxadiazol-3-yl)-2-methylphenyl)-7-(3-(pyrrolidin-1-yl)propoxy)imidazo[1,2-a]pyridine-3-carboxamide], the IC50 was no more than 0.05 µM.

Consider `Cc1nc(-c2ccc(C)c(NC(=O)c3cnc4cc(-c5cscn5)ccn34)c2)no1` [Compound I-548, N-(2-methyl-5-(5-methyl-1,2,4-oxadiazol-3-yl)phenyl)-7-(thiazol-4-yl)imidazo[1,2-a]pyridine-3-carboxamide], for which the 50% inhibitory concentration (IC50) was no more than 0.05 µM.

Regarding `Cc1ccc(-c2noc([C@H]3C[C@@H]3F)n2)cc1NC(=O)c1cnc2cc(C(C)OCCO)ccn12` (relative stereo) [Compound I-451, N-[5-[5-[(1R,2S)-2-fluorocyclopropyl]-1,2,4-oxadiazol-3-yl]-2-methyl-phenyl]-7-[(1R*)-1-(2-hydroxyethoxy)ethyl]imidazo[1,2-a]pyridine-3-carboxamide], the IC50 is no more than 0.05 µM.

As to `Cc1ccn2c(C(=O)Nc3cc(-c4noc(C5CCCCC5)n4)ccc3C)cnc2c1` [Compound I-539], the concentration for half-maximal inhibition (IC50) is no more than 0.05 µM.

Consider `Cc1ccc(-c2ncon2)cc1NC(=O)c1cnc2cc(-c3cscn3)ccn12` [Compound I-694], for which the 50% inhibitory concentration (IC50) is no more than 0.05 µM.

As for `Cc1ccc(-c2noc([C@H]3C[C@@H]3F)n2)cc1NC(=O)c1cnc2cc(OCCCN3CCCC3)ccn12` [Compound I-630, N-(5-(5-((1R,2S)-2-fluorocyclopropyl)-1,2,4-oxadiazol-3-yl)-2-methylphenyl)-7-(3-(pyrrolidin-1-yl)propoxy)imidazo[1,2-a]pyridine-3-carboxamide], the IC50 is no more than 0.05 µM.

Regarding `Cc1ccc(-c2noc(N3CC(F)(F)C3)n2)cc1NC(=O)c1cnn2cc(F)ccc12` [Compound I-626], the IC50 lay in the range of 0.05 to 0.5 µM.

As to `COc1ccn2c(C(=O)Nc3cc(-c4noc(-c5cccnc5)n4)ccc3C)cnc2c1` [Compound I-745], the IC50 is no more than 0.05 µM.

For the molecule `Cc1ccc(-c2noc([C@H]3C[C@@H]3F)n2)cc1NC(=O)c1cnc2cc(-c3ccn(C)n3)ccn12` [Compound I-529, N-(5-(5-((1R,2S)-2-fluorocyclopropyl)-1,2,4-oxadiazol-3-yl)-2-methylphenyl)-7-(1-methyl-1H-pyrazol-3-yl)imidazo[1,2-a]pyridine-3-carboxamide], the IC50 was no more than 0.05 µM.

Turning to `Cc1ccc(-c2noc(C3CC(N)C3)n2)cc1NC(=O)c1cnc2cc(Cl)ccn12` (stereo not drawn) [Compound I-746], the concentration for half-maximal inhibition (IC50) fell in the range of 0.5 to 5 µM.

With `COC[C@@H](O)c1nc(-c2ccc(C)c(NC(=O)c3cnc4cc(C)ccn34)c2)no1` [Compound I-607], the IC50 lay in the range of 0.5 to 5 µM.

On to `Cc1ccc(-c2noc([C@H]3C[C@@H]3F)n2)cc1NC(=O)c1cnc2cc3c(cn12)C(C)OC3` (single isomer, unassigned) [Compound I-482, (4S*)—N-[5-[5-[(1R,2S)-2-fluorocyclopropyl]-1,2,4-oxadiazol-3-yl]-2-methyl-phenyl]-4-methyl-5-oxa-1,10-diazatricyclo[7.3.0.0^3,7]dodeca-2,7,9,11-tetraene-12-carboxamide], for which the IC50 was no more than 0.05 µM.

In the case of `Cc1ccc(-c2noc([C@H]3C[C@@H]3F)n2)cc1NC(=O)c1cnc2cc([C@H]3C[C@@H]3CO)ccn12` [Compound I-480, N-[5-[5-[(1R,2S)-2-fluorocyclopropyl]-1,2,4-oxadiazol-3-yl]-2-methyl-phenyl]-7-[(1S,2S)-2 (hydroxymethyl)cyclopropyl]imidazo[1,2-a]pyridine-3-carboxamide], the IC50 was no more than 0.05 µM.

As to `Cc1ccc(-c2ncon2)cc1NC(=O)c1cnc2cc(-c3ccn(C)n3)ccn12` [Compound I-684], the IC50 is no more than 0.05 µM.

Consider `Cc1ccc(-c2noc([C@H]3C[C@@H]3F)n2)cc1NC(=O)c1cnc2cc(COCC(=O)O)ccn12` [Compound I-477, 2-((3-((5-(5-((1R,2S)-2-fluorocyclopropyl)-1,2,4-oxadiazol-3-yl)-2-methylphenyl)carbamoyl)imidazo[1,2-a]pyridin-7-yl)methoxy)acetic acid], for which the IC50 was no more than 0.05 µM.

As to `Cc1ccc(-c2noc(C(C)O)n2)cc1NC(=O)c1cnn2cc(-c3ccn(C)n3)ccc12` (stereo not drawn) [Compound I-730], the IC50 was no more than 0.05 µM.

With `Cc1ccc(-c2noc([C@@H]3CC4(CC4)CN3)n2)cc1NC(=O)c1cnc2cc(F)ccn12` [Compound I-628, (S)—N-(5-(5-(5-azaspiro[2.4]heptan-6-yl)-1,2,4-oxadiazol-3-yl)-2-methylphenyl)-7-fluoroimidazo[1,2-a]pyridine-3-carboxamide], the IC50 is no more than 0.05 µM.

For the molecule `Cc1ccc(-c2noc([C@H]3C[C@@H]3F)n2)cc1NC(=O)c1cnc2cc(C(C)(C)CO)ccn12` [Compound I-464], the IC50 lay within 0.05 to 0.5 µM.

Consider `Cc1ccc(-c2noc(CCC(C)(C)O)n2)cc1NC(=O)c1cnc2cc(COCC(C)(C)O)ccn12` [Compound I-567], for which the IC50 lay within 0.05 to 0.5 µM.

For `Cc1ccc(-c2noc(N3CC(F)(F)C3)n2)cc1NC(=O)c1cnc2cc(F)c(Cl)cn12` [Compound I-610], the IC50 lay in the range of 0.05 to 0.5 µM.

Values taken from patent US20240254119A1 (THIRD HARMONIC BIO, INC., priority 2022, published 2024).
